ChEMBL document CHEMBL1201862, “PubChem BioAssay data set” (2004)
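Five concentrations, 48 hours, 96-well plates. GI50 is the concentration that inhibits growth by half.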 Calls of active or inactive are those of the source. Cut-off read from the data, not from the text of the source: active = GI50 up to about 1.1 µM and inactive = higher.

Tests used:
Assay in all cases: growth of human tumour cells (NCI), 48 h
[1] = test system: 786-0
[2] = test system: A498
[3] = test system: A549
[4] = test system: ACHN
[5] = test system: BT-549
[6] = test system: CAKI-1
[7] = test system: CCRF-CEM
[8] = test system: COLO 205
[9] = test system: DU-145
[10] = test system: EKVX
[11] = test system: HCC 2998
[12] = test system: HCT-116
[13] = test system: HCT-15
[14] = test system: HL-60
[15] = test system: HOP-62
[16] = test system: HOP-92
[17] = test system: HT-29
[18] = test system: Hs-578T
[19] = test system: IGROV-1
[20] = test system: KM12
[21] = test system: M14
[22] = test system: MCF7
[23] = test system: MDA-MB-231
[24] = test system: MDA-MB-435
[25] = test system: MDA-N
[26] = test system: MOLT-4
[27] = test system: Malme-3M
[28] = test system: NCI-H226
[29] = test system: NCI-H23
[30] = test system: NCI-H460
[31] = test system: NCI-H522
[32] = test system: NCI/ADR-RES
[33] = test system: OVCAR-3
[34] = test system: OVCAR-4
[35] = test system: OVCAR-5
[36] = test system: OVCAR-8
[37] = test system: PC-3
[38] = test system: RPMI-8226
[39] = test system: SF-268
[40] = test system: SF-295
[41] = test system: SF-539
[42] = test system: SK-MEL-28
[43] = test system: SK-MEL-2
[44] = test system: SK-MEL-5
[45] = test system: SK-OV-3
[46] = test system: SN12C
[47] = test system: SNB-19
[48] = test system: SNB-75
[49] = test system: SW-620
[50] = test system: T47D
[51] = test system: TK-10
[52] = test system: U-251
[53] = test system: UACC-257
[54] = test system: UACC-62
[55] = test system: UO-31
[56] = test system: K562
[57] = test system: LOX IMVI
[58] = test system: RXF 393

## CN[C@@H](C)[C@H](OP(=O)(O)OC1[C@@H](O)[C@H](O)C(O)[C@H](O)[C@@H]1O)c1ccccc1 (some centres undefined)
[1]
  GI50: > 100 µM (inactive)
[2]
  GI50: > 100 µM (inactive)
[3]
  GI50: > 100 µM (inactive)
[4]
  GI50: > 100 µM (inactive)
[5]
  GI50: > 100 µM (inactive)
[6]
  GI50: > 100 µM (inactive)
[7]
  GI50: > 100 µM (inactive)
[8]
  GI50: > 100 µM (inactive)
[9]
  GI50: > 100 µM (inactive)
[10]
  GI50: > 100 µM (inactive)
[11]
  GI50: > 100 µM (inactive)
[12]
  GI50: > 100 µM (inactive)
[13]
  GI50: > 100 µM
[14]
  GI50: > 100 µM (inactive)
[15]
  GI50: > 100 µM (inactive)
[16]
  GI50: > 100 µM (inactive)
[17]
  GI50: > 100 µM (inactive)
[18]
  GI50: > 100 µM (inactive)
[19]
  GI50: > 100 µM (inactive)
[20]
  GI50: > 100 µM (inactive)
[21]
  GI50: > 100 µM (inactive)
[22]
  GI50: > 100 µM (inactive)
[23]
  GI50: > 100 µM (inactive)
[24]
  GI50: > 100 µM (inactive)
[25]
  GI50: > 100 µM (inactive)
[26]
  GI50: > 100 µM (inactive)
[27]
  GI50: > 100 µM (inactive)
[28]
  GI50: > 100 µM (inactive)
[29]
  GI50: > 100 µM (inactive)
[30]
  GI50: > 100 µM (inactive)
[31]
  GI50: > 100 µM (inactive)
[32]
  GI50: > 100 µM (inactive)
[33]
  GI50: > 100 µM (inactive)
[34]
  GI50: > 100 µM (inactive)
[35]
  GI50: > 100 µM (inactive)
[36]
  GI50: > 100 µM (inactive)
[37]
  GI50: > 100 µM (inactive)
[38]
  GI50: > 100 µM (inactive)
[39]
  GI50: > 100 µM (inactive)
[40]
  GI50: > 100 µM (inactive)
[41]
  GI50: 16.3 µM (inactive)
[42]
  GI50: > 100 µM (inactive)
[43]
  GI50: > 100 µM (inactive)
[44]
  GI50: > 100 µM (inactive)
[45]
  GI50: > 100 µM (inactive)
[46]
  GI50: > 100 µM (inactive)
[47]
  GI50: > 100 µM (inactive)
[48]
  GI50: > 100 µM (inactive)
[49]
  GI50: > 100 µM (inactive)
[50]
  GI50: > 100 µM (inactive)
[51]
  GI50: > 100 µM (inactive)
[52]
  GI50: > 100 µM (inactive)
[53]
  GI50: > 100 µM (inactive)
[54]
  GI50: > 100 µM (inactive)
[55]
  GI50: > 100 µM (inactive)

## CCOC(=O)C(C(=O)OCC)C1C=CCC2c3ccccc3COCC21 (centres undefined)
[1]
  GI50: > 100 µM (inactive)
[2]
  GI50: 38.7 µM (inactive)
[3]
  GI50: 66.5 µM (inactive)
[4]
  GI50: 40.2 µM (inactive)
[5]
  GI50: 49 µM (inactive)
[6]
  GI50: 26.5 µM (inactive)
[7]
  GI50: 36.1 µM (inactive)
[8]
  GI50: 23.7 µM (inactive)
[9]
  GI50: > 100 µM (inactive)
[10]
  GI50: 40.5 µM (inactive)
[11]
  GI50: 52.5 µM (inactive)
[12]
  GI50: 41.1 µM (inactive)
[13]
  GI50: 40 µM
[14]
  GI50: 22.4 µM (inactive)
[15]
  GI50: > 100 µM (inactive)
[16]
  GI50: > 100 µM (inactive)
[17]
  GI50: 54.7 µM (inactive)
[18]
  GI50: 73.8 µM (inactive)
[19]
  GI50: 75.5 µM (inactive)
[56]
  GI50: 41.9 µM (inactive)
[20]
  GI50: 33.6 µM (inactive)
[57]
  GI50: 44.2 µM (inactive)
[21]
  GI50: 49.9 µM (inactive)
[22]
  GI50: 31.8 µM (inactive)
[23]
  GI50: > 100 µM (inactive)
[24]
  GI50: 36.9 µM (inactive)
[25]
  GI50: 40.7 µM (inactive)
[26]
  GI50: 40.9 µM (inactive)
[27]
  GI50: 31.7 µM (inactive)
[28]
  GI50: 73.8 µM (inactive)
[29]
  GI50: 43.6 µM (inactive)
[30]
  GI50: 62.1 µM (inactive)
[31]
  GI50: 24.5 µM (inactive)
[32]
  GI50: 28.2 µM (inactive)
[33]
  GI50: 65.5 µM (inactive)
[34]
  GI50: 28.6 µM (inactive)
[35]
  GI50: > 100 µM (inactive)
[36]
  GI50: 44.2 µM (inactive)
[37]
  GI50: 42.6 µM (inactive)
[38]
  GI50: 41.5 µM (inactive)
[58]
  GI50: > 100 µM (inactive)
[39]
  GI50: 67.5 µM (inactive)
[40]
  GI50: 43.6 µM (inactive)
[41]
  GI50: > 100 µM (inactive)
[42]
  GI50: 55.7 µM (inactive)
[43]
  GI50: 41.4 µM (inactive)
[44]
  GI50: 19.1 µM (inactive)
[45]
  GI50: 85.5 µM (inactive)
[46]
  GI50: 79.6 µM (inactive)
[47]
  GI50: > 100 µM (inactive)
[48]
  GI50: 96.6 µM (inactive)
[49]
  GI50: 52.7 µM (inactive)
[50]
  GI50: 30.2 µM (inactive)
[51]
  GI50: 98.2 µM (inactive)
[52]
  GI50: 57.9 µM (inactive)
[53]
  GI50: 30.3 µM (inactive)
[54]
  GI50: 26.1 µM (inactive)
[55]
  GI50: 43.9 µM (inactive)

## O=C(O)CC(C(=O)O)c1ccccc1[N+](=O)[O-] (centres undefined)
[1]
  GI50: > 100 µM (inactive)
[2]
  GI50: > 100 µM (inactive)
[3]
  GI50: > 100 µM (inactive)
[4]
  GI50: > 100 µM (inactive)
[5]
  GI50: > 100 µM (inactive)
[6]
  GI50: > 100 µM (inactive)
[7]
  GI50: > 100 µM (inactive)
[8]
  GI50: > 100 µM (inactive)
[9]
  GI50: > 100 µM (inactive)
[10]
  GI50: > 100 µM (inactive)
[11]
  GI50: > 100 µM (inactive)
[12]
  GI50: > 100 µM (inactive)
[13]
  GI50: > 100 µM
[14]
  GI50: > 100 µM (inactive)
[15]
  GI50: > 100 µM (inactive)
[16]
  GI50: > 100 µM (inactive)
[17]
  GI50: > 100 µM (inactive)
[18]
  GI50: 25.6 µM (inactive)
[19]
  GI50: > 100 µM (inactive)
[56]
  GI50: > 100 µM (inactive)
[20]
  GI50: > 100 µM (inactive)
[57]
  GI50: > 100 µM (inactive)
[21]
  GI50: > 100 µM (inactive)
[22]
  GI50: > 100 µM (inactive)
[23]
  GI50: > 100 µM (inactive)
[24]
  GI50: > 100 µM (inactive)
[25]
  GI50: > 100 µM (inactive)
[27]
  GI50: > 100 µM (inactive)
[28]
  GI50: > 100 µM (inactive)
[29]
  GI50: > 100 µM (inactive)
[30]
  GI50: > 100 µM (inactive)
[31]
  GI50: > 100 µM (inactive)
[32]
  GI50: > 100 µM (inactive)
[33]
  GI50: > 100 µM (inactive)
[34]
  GI50: > 100 µM (inactive)
[35]
  GI50: > 100 µM (inactive)
[36]
  GI50: > 100 µM (inactive)
[37]
  GI50: > 100 µM (inactive)
[38]
  GI50: > 100 µM (inactive)
[58]
  GI50: > 100 µM (inactive)
[39]
  GI50: > 100 µM (inactive)
[40]
  GI50: > 100 µM (inactive)
[42]
  GI50: > 100 µM (inactive)
[43]
  GI50: > 100 µM (inactive)
[44]
  GI50: > 100 µM (inactive)
[45]
  GI50: > 100 µM (inactive)
[46]
  GI50: > 100 µM (inactive)
[47]
  GI50: > 100 µM (inactive)
[48]
  GI50: > 100 µM (inactive)
[49]
  GI50: > 100 µM (inactive)
[50]
  GI50: > 100 µM (inactive)
[51]
  GI50: > 100 µM (inactive)
[52]
  GI50: > 100 µM (inactive)
[53]
  GI50: > 100 µM (inactive)
[54]
  GI50: > 100 µM (inactive)
[55]
  GI50: 2.62 µM (inactive)
